One assay addresses GCN2 kinase (Homo sapiens, UniProt Q9P2K8). Put plainly: GCN2 enzyme inhibition assay (Transcreener ADP2 fluorescence polarization). It is filed as biochemical. The note with it: 280 μM ATP. The procedure, abridged:
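ADP formation read by Transcreener FP after a 1 h, 25 °C kinase reaction containing 280 μM ATP, 200 μM (RS)7 substrate and 4 nM GCN2, pH 7.5 Tris buffer. Compounds (0–8 μM final) were added 10 min before ATP. Percent inhibition gave IC50 and apparent Ki via tight-binding fit.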

The target in assay [1] is intracellular GCN2 (phosphorylation of the GCN2 substrate eIF2α) (Homo sapiens, UniProt Q9P2K8). Put plainly: GCN2 cellular inhibition assay (AlphaScreen SureFire P-eIF2α Ser51, borrelidin-treated U2OS cells). It is filed as cell-based. The procedure, abridged:
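U2OS, overnight attach; cpd 4-fold serial dil. from 40 μM final; borrelidin 10 μM, 1 h 37 °C/5% CO2; lyse; AlphaScreen P-eIF2α Ser51 (acceptor 2 h, donor overnight, RT, dark); % inhib. vs borrelidin-only.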

Setting [2] is: Enzyme activity for compounds of Formula IV, Ki(app), 25° C.
Where [3] appears, read: compounds of Formula IV, biomarker assay, phosphorylated eIF2α Ser51 in borrelidin-treated U2OS cells.
[4] abbreviates: compounds of Formula II, 4 nM GCN2 kinase.
The mark [5] stands for this setting: compounds of Formula II, biomarker assay, phosphorylated eIF2α Ser51 in borrelidin-treated U2OS cells.

Like-named read-outs stand apart in the source and are kept apart here. Where only a bound is given, the exact number is not on record here.

Sequence of GCN2 kinase (Q9P2K8 whole entry): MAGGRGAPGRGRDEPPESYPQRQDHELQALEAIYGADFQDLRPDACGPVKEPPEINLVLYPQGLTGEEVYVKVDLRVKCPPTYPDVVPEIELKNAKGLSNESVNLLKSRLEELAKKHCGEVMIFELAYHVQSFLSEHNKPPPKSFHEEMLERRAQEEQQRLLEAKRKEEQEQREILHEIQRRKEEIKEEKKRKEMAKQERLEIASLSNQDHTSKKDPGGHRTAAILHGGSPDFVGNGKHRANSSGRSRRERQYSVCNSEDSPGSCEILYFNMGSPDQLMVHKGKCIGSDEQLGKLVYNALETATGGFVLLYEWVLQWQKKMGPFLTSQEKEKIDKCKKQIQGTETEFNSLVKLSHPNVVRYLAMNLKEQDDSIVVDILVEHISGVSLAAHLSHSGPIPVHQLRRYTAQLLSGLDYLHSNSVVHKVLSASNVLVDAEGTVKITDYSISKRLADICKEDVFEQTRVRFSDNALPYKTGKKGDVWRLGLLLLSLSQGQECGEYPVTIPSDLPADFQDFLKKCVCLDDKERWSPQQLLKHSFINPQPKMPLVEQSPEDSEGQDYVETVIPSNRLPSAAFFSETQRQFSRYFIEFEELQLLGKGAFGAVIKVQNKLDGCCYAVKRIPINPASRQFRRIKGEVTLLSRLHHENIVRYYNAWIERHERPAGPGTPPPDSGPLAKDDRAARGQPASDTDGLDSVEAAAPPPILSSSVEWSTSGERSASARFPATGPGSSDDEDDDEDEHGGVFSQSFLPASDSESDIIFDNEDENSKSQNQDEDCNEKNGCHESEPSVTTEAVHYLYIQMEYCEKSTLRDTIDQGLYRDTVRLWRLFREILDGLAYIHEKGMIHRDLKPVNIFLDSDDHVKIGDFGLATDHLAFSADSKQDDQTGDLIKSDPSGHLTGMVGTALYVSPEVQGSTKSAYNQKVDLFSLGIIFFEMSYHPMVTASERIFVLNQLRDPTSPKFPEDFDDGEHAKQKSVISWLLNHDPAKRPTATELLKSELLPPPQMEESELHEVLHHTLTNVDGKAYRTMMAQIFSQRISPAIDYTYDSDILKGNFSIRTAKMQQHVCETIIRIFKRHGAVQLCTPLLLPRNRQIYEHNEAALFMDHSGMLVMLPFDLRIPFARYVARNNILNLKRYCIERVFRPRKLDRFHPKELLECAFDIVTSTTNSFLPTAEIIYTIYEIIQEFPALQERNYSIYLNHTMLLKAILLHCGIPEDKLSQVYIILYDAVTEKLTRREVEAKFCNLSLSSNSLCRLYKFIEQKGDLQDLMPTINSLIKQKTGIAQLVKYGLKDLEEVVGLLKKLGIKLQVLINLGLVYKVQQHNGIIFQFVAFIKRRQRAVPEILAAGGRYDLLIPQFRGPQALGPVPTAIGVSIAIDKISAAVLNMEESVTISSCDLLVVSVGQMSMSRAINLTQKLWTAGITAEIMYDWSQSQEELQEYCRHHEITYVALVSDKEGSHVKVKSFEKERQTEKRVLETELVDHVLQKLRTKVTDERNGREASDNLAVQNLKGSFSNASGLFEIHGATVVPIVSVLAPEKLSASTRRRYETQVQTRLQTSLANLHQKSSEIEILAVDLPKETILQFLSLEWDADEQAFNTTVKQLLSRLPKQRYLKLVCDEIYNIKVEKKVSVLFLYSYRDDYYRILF
Sequence of intracellular GCN2 (phosphorylation of the GCN2 substrate eIF2α) (Q9P2K8 whole entry): as above

Compound `C[C@H]1[C@@H](c2cn[nH]c2)NCCN1c1ccnc(-c2cnc3cnc(Br)cn23)n1` (racemic) [IV-343, Cis-6-Bromo-3-(4-(2-methyl-3-(1H-pyrazol-4-yl)piperazin-1-yl)pyrimidin-2-yl)imidazo[1,2-a]pyrazine] returned a Ki on GCN2 kinase (setting [2]) of under 10 nM. This compound also registered an IC50 in assay [1] (setting [3]) of under 500 nM.
The like results for `CC(NS(C)(=O)=O)C1CN(c2ccnc(-c3cnc4cnc(C(F)F)cn34)n2)CCO1` (centres unmarked) [IV-62, N-(1-(4-(2-(6-(Difluoromethyl)imidazo[1,2-a]pyrazin-3-yl)pyrimidin-4-yl)morpholin-2-yl)ethyl)methanesulfonamide] were, in that order, 100 to 1000 nM and over 5000 nM.
The corresponding values for `CS(=O)(=O)NC1CCCN(c2ccnc(-c3cnc4cnc(C(F)F)cn34)n2)C1` (centres unmarked) [IV-169, N-(1-(2-(6-(Difluoromethyl)imidazo[1,2-a]pyrazin-3-yl)pyrimidin-4-yl)piperidin-3-yl)methanesulfonamide] are 100 to 1000 nM and over 5000 nM.
`CC(=O)N1CC2(C1)CN(c1cc(-c3cnc4ccc(C(F)F)nn34)cc(N3CCCC(CNS(C)(=O)=O)C3)n1)C2` (centres unmarked) [II-55, N-((1-(6-(6-Acetyl-2,6-diazaspiro[3.3]heptan-2-yl)-4-(6-(difluoromethyl)imidazo[1,2-b]pyridazin-3-yl)pyridin-2-yl)piperidin-3-yl)methyl)methanesulfonamide] came in with a Ki at GCN2 kinase (setting [4]) of under 10 nM. Moreover, in assay [1] (setting [5]), the IC50 is under 500 nM.
With `CC(=O)N1CCN(c2ccnc(-c3cnc4cnc(Cl)cn34)n2)CC1` [IV-35, 1-(4-(2-(6-Chloroimidazo[1,2-a]pyrazin-3-yl)pyrimidin-4-yl)piperazin-1-yl)ethan-1-one], the Ki at GCN2 kinase (setting [2]) fell in the range of 100 to 1000 nM. The IC50 in assay [1] (setting [3]) was over 5000 nM.
`CC1CC(CS(C)(=N)=O)C(C)N(c2ccnc(-c3cnc4sc(C(F)(F)F)cn34)n2)C1` (centres unmarked) [Compound V-17, ((2,5-Dimethyl-1-(2-(2-(trifluoromethyl)imidazo[2,1-b]thiazol-5-yl)pyrimidin-4-yl)piperidin-3-yl)methyl)(imino)(methyl)-λ^6-sulfanone]: the Ki at GCN2 kinase (compounds of Formula V, 4 nM GCN2 kinase) was 10 to 100 nM. Further, the IC50 in assay [1] (compounds of Formula V, U2OS cells, 10 μM borrelidin, 1 h, read-out: GCN2 Biomarker (IC50)) lay within 500 to 5000 nM.
In turn, `C[C@H]1[C@@H](C[S@@](C)(=N)=O)CCCN1c1cc(-c2cnc3ccc(C(F)F)nn23)ncn1` [II-485, (S)-(((2S,3S)-1-(6-(6-(Difluoromethyl)imidazo[1,2-b]pyridazin-3-yl)pyrimidin-4-yl)-2-methylpiperidin-3-yl)methyl)(imino)(methyl)-λ^6-sulfanone] registered a Ki at GCN2 kinase (setting [4]) of under 10 nM. In assay [1] (setting [5]), this compound came in with an IC50 of under 500 nM.
The like results for `OCC1CN(c2cc(-c3cnc4ccc(C(F)F)nn34)ncn2)CCO1` (centres unmarked) [II-521, (4-(6-(6-(Difluoromethyl)imidazo[1,2-b]pyridazin-3-yl)pyrimidin-4-yl)morpholin-2-yl)methanol] were, in that order, 10 to 1000 nM and 500 to 5000 nM.
The compound `CC(=O)N1CCN(c2ccnc(-c3cnc4ccc(C(F)F)nn34)c2)CC1` [II-127, 1-(4-(2-(6-(Difluoromethyl)imidazo[1,2-b]pyridazin-3-yl)pyridin-4-yl)piperazin-1-yl)ethanone] had a Ki at GCN2 kinase (setting [4]) of 10 to 1000 nM. Also, in assay [1] (setting [5]), the IC50 was in the range of 500 to 5000 nM.
The like results for `NC(=O)C1CCCN(c2cc(-c3cnc4ccc(C(F)F)nn34)ncn2)C1` (centres unmarked) [II-378, 1-(6-(6-(Difluoromethyl)imidazo[1,2-b]pyridazin-3-yl)pyrimidin-4-yl)piperidine-3-carboxamide] were, in that order, 10 to 1000 nM and 500 to 5000 nM.
The compound `FC(F)(F)c1cn2c(-c3nccc(N4CCOC(c5ccncc5)C4)n3)cnc2cn1` (centres unmarked) [IV-724] registered a Ki on GCN2 kinase (setting [2]) of over 1000 nM. This compound also yielded an IC50 in assay [1] (setting [3]) of over 5000 nM.
The corresponding values for `FC(F)c1cn2c(-c3nccc(N4CCCCC4)n3)cnc2cn1` [IV-103, 6-(Difluoromethyl)-3-(4-(piperidin-1-yl)pyrimidin-2-yl)imidazo[1,2-a]pyrazine] are 100 to 1000 nM and over 5000 nM.
On GCN2 kinase (setting [2]), `CC1CN(c2ccnc(-c3cnc4cnc(Cl)cn34)n2)CC(c2cn[nH]c2)N1` (single isomer, unassigned) [IV-214, 6-Chloro-3-(4-(3-methyl-5-(1H-pyrazol-4-yl)piperazin-1-yl)pyrimidin-2-yl)imidazo[1,2-a]pyrazine] yielded a Ki of under 10 nM. In assay [1] (setting [3]), the IC50 is under 500 nM.
`FC(F)c1ccc2ncc(-c3cc(N4CCC5C(C4)C5(F)F)ncn3)n2n1` (centres unmarked) [II-274, 3-(6-(7,7-Difluoro-3-azabicyclo[4.1.0]heptan-3-yl)pyrimidin-4-yl)-6-(difluoromethyl)imidazo[1,2-b]pyridazine] yielded a Ki on GCN2 kinase (setting [4]) of 10 to 1000 nM. Moreover, in assay [1] (setting [5]), the IC50 is over 5000 nM.
At GCN2 kinase (setting [2]), `FC(F)(F)c1cn2c(-c3nccc(N4CCC(C5CCOC5)C4)n3)cnc2cn1` (centres unmarked) [IV-580, 3-(4-(3-(Tetrahydrofuran-3-yl)pyrrolidin-1-yl)pyrimidin-2-yl)-6-(trifluoromethyl)imidazo[1,2-a]pyrazine] registered a Ki of 10 to 100 nM. In assay [1] (setting [3]), this compound registered an IC50 of over 5000 nM.
On to `CC1(O)CCN(c2cc(-c3cnc4ccc(C(F)F)nn34)ncn2)CC1CNS(C)(=O)=O` (centres unmarked) [II-240, N-((1-(6-(6-(Difluoromethyl)imidazo[1,2-b]pyridazin-3-yl)pyrimidin-4-yl)-4-hydroxy-4-methylpiperidin-3-yl)methyl)methanesulfonamide], for which the Ki at GCN2 kinase (setting [4]) is under 10 nM. This compound returned an IC50 in assay [1] (setting [5]) of under 500 nM.
The corresponding values for `FC(F)c1ccc2ncc(-c3cc(C4CCCN(C5COC5)C4)ncn3)n2n1` (single isomer, unassigned) [II-241, 6-(Difluoromethyl)-3-(6-(1-(oxetan-3-yl)piperidin-3-yl)pyrimidin-4-yl)imidazo[1,2-b]pyridazine] are over 1000 nM and over 5000 nM.
Consider `FC(F)(F)c1cn2c(-c3nccc(N4CCCC(c5cnco5)C4)n3)cnc2cn1` (centres unmarked) [IV-678, 5-(1-(2-(6-(Trifluoromethyl)imidazo[1,2-a]pyrazin-3-yl)pyrimidin-4-yl)piperidin-3-yl)oxazole], for which the Ki at GCN2 kinase (setting [2]) fell in the range of 10 to 100 nM. Further, the IC50 in assay [1] (setting [3]) was in the range of 500 to 5000 nM.
Compound `CS(=O)(=O)NCC1COCCN(c2cc(-c3cnc4ccc(C(F)F)nn34)ncn2)C1` (centres unmarked) [II-481, N-((4-(6-(6-(Difluoromethyl)imidazo[1,2-b]pyridazin-3-yl)pyrimidin-4-yl)-1,4-oxazepan-6-yl)methyl)methanesulfonamide] showed a Ki at GCN2 kinase (setting [4]) of 10 to 1000 nM. The compound further returned an IC50 in assay [1] (setting [5]) of 500 to 5000 nM.
The corresponding values for `CC(=O)N1CCN(c2cccc(-c3cnc4ccc(C(F)F)nn34)n2)CC1` [II-731, 1-(4-(6-(6-(difluoromethyl)imidazo[1,2-b]pyridazin-3-yl)pyridin-2-yl)piperazin-1-yl)ethan-1-one] are over 1000 nM and over 5000 nM.
Consider `CC1CN(c2cc(N=S(C)(C)=O)nc(-c3cnc4cnc(C(F)(F)F)cn34)n2)C(C)C(c2cn[nH]c2)N1` (centres unmarked) [IV-648, ((6-(2,5-Dimethyl-3-(1H-pyrazol-4-yl)piperazin-1-yl)-2-(6-(trifluoromethyl)imidazo[1,2-a]pyrazin-3-yl)pyrimidin-4-yl)imino)dimethyl-λ^6-sulfanone], for which the Ki at GCN2 kinase (setting [2]) was under 10 nM. The IC50 in assay [1] (setting [3]) was 500 to 5000 nM.
`C[C@H]1[C@@H](c2cn[nH]c2)N(C)CCN1c1ccnc(-c2cnc3cnc(Br)cn23)n1` (relative stereo) [IV-392, Cis-6-Bromo-3-(4-(2,4-dimethyl-3-(1H-pyrazol-4-yl)piperazin-1-yl)pyrimidin-2-yl)imidazo[1,2-a]pyrazine]: the Ki at GCN2 kinase (setting [2]) is under 10 nM. The compound further yielded a half-maximal inhibitory concentration (IC50) in assay [1] (setting [3]) of under 500 nM.
As for `CC1CC(P(C)(C)=O)CN(c2cc(-c3cnc4ccc(C(F)F)nn34)ncn2)C1` (centres unmarked) [II-711, 6-(Difluoromethyl)-3-[6-(3-dimethylphosphoryl-5-methyl-1-piperidyl)pyrimidin-4-yl]imidazo[1,2-b]pyridazine], at GCN2 kinase (setting [4]), the Ki is 10 to 1000 nM. The same compound displayed an IC50 in assay [1] (setting [5]) of 500 to 5000 nM.
`FC(F)(F)c1cn2c(-c3nccc(N4CCOC(c5cn[nH]c5)C4)n3)cnc2cn1` (single isomer, unassigned) [IV-7, 2-(1H-Pyrazol-4-yl)-4-(2-(6-(trifluoromethyl)imidazo[1,2-a]pyrazin-3-yl)pyrimidin-4-yl)morpholine] registered a Ki on GCN2 kinase (setting [2]) of 10 to 100 nM. In assay [1] (setting [3]), this compound yielded an IC50 of 500 to 5000 nM.
On to `NS(=O)(=O)CC1CCCN(c2cc(-c3cnc4ccc(C(F)F)nn34)ncn2)C1` (centres unmarked) [II-219, (1-(6-(6-(Difluoromethyl)imidazo[1,2-b]pyridazin-3-yl)pyrimidin-4-yl)piperidin-3-yl)methanesulfonamide], for which the Ki on GCN2 kinase (setting [4]) was under 10 nM. In addition, in assay [1] (setting [5]), the half-inhibitory concentration (IC50) is under 500 nM.
At GCN2 kinase (setting [2]), `FC(F)(F)c1cn2c(-c3nccc(N4CCOC(c5cn[nH]c5)C4)n3)cnc2cn1` (single isomer, unassigned) [IV-8, 2-(1H-Pyrazol-4-yl)-4-(2-(6-(trifluoromethyl)imidazo[1,2-a]pyrazin-3-yl)pyrimidin-4-yl)morpholine] gave a Ki of under 10 nM. The compound further came in with an IC50 in assay [1] (setting [3]) of 500 to 5000 nM.
On GCN2 kinase (setting [4]), `OC[C@H]1CCCN(c2cc(-c3cnc4ccc(C(F)F)nn34)ncn2)C1` [II-519, (S)-(1-(6-(6-(Difluoromethyl)imidazo[1,2-b]pyridazin-3-yl)pyrimidin-4-yl)piperidin-3-yl)methanol] registered a Ki of 10 to 1000 nM. Moreover, in assay [1] (setting [5]), the IC50 was 500 to 5000 nM.
`OC1CCN(c2ccnc(-c3cnc4cnc(C(F)(F)F)cn34)n2)CC1c1cn[nH]c1` (single isomer, unassigned) [IV-624, 3-(1H-Pyrazol-4-yl)-1-(2-(6-(trifluoromethyl)imidazo[1,2-a]pyrazin-3-yl)pyrimidin-4-yl)piperidin-4-ol] had a Ki on GCN2 kinase (setting [2]) of 10 to 100 nM. For the same compound, in assay [1] (setting [3]), the IC50 lay within 500 to 5000 nM.

For the origin of these results see patent US10988477B2 (Merck Patent GmbH, priority 2018, dated 2021).
